Source: publication PMC8205226, “HIV-1 Integrase Inhibitors with Modifications That Affect Their Potencies against Drug Resistant Integrase Mutants” (ACS Infectious Diseases, 2021)
Where two headings read alike, the source gives them in different places.

How the values were obtained:
HIV-1 IN mutant Y143R = experiment: single-round infectivity assay, Y143R IN mutant; type: cell-based; conditions: EC50 compound / EC50 DTG
Experimental: (§1) Figure 2 Antiviral activities of the new compounds against RAL-resistant mutants. The EC50 values were determined using a vector that carries WT HIV-1 IN and the RAL-resistant mutants in a single round infection assay. […] Error bars represent the standard deviations of independent experiments, n = 4, performed in triplicate. The graph has a maximum value of 550 nM.
(§2) WT and mutant HIV-1 viral vectors were used in single-round infectivity assays to determine the antiviral potencies (EC50 values) of the compounds and the effects of the mutants on the EC50 values as previously described.[30],[54] Single round infectivity measurements were determined as done previously.[38]
(§3) The vector pNLNgoMIVR-ΔENV.LUC has been described previously.[26] To produce the new IN mutants used in this study, the IN open reading frame was removed from pNLNgoMIVR-ΔENV.LUC by digestion with KpnI and SalI, and the resulting fragment was inserted between the KpnI and SalI sites of pBluescript KS+. Using that construct as the wild-type template, we prepared the following HIV-1 IN mutants using the QuikChange II XL site directed mutagenesis kit (Agilent Technologies, Santa Clara, CA) protocol: N117A, N117H, P142A, P142H, P142S, Y143C, Y143H, S230R, R231G, and R231K. The following sense oligonucleotides were used with matching cognate antisense oligonucleotides (not shown) (Integrated DNA Technologies, Coralville, IA) in the mutagenesis: N117A, 5′-[…]-3′; N117H, 5′-[…]-3′; P142A, 5′-[…]-3′; P142H, 5′-[…]-3′; P142S, 5′-[…]-3′; Y143C, 5′- […]-3′; Y143H, 5′-[…]-3′; S230R, 5′- […]-3′; R231G, 5′-[…]-3′; R231K, 5′-[…]-3′.

HIV-1 IN mutant N155H = experiment: single-round infectivity assay, N155H IN mutant; type: cell-based; conditions: EC50 compound / EC50 DTG
Experimental: as §1, §2, §3

[1] = system: HIV-1 IN double mutant G140S/Q148H; experiment: single-round infectivity assay, G140S/Q148H IN double mutant; type: cell-based; conditions: EC50 compound / EC50 DTG
Experimental: as §1, §2, §3

HIV-1 IN mutant N117A = experiment: single-round infectivity assay, N117A IN mutant; type: cell-based
Experimental: (§4) The EC50 values were determined using a vector that carries the IN mutant in a single round infection assay. […] Error bars represent the standard deviations of independent experiments, n = 4, performed in triplicate.
as §2, §3

HIV-1 IN mutant N117H = experiment: single-round infectivity assay, N117H IN mutant; type: cell-based
Experimental: as §4, §2, §3

HIV-1 IN mutant G118R [2] = experiment: single-round infectivity assay, G118R IN mutant; type: cell-based
Experimental: as §4, §2, §3

HIV-1 IN mutant S119R = experiment: single-round infectivity assay, S119R IN mutant; type: cell-based
Experimental: as §4, §2, §3

HIV-1 IN mutant Y143C = experiment: single-round infectivity assay, Y143C IN mutant; type: cell-based
Experimental: as §4, with “Figure 4 Mutations in the β5-α3 loop affect the antiviral potencies of the new compounds. The” for “The”
as §2, §3

HIV-1 IN mutant Y143H = experiment: single-round infectivity assay, Y143H IN mutant; type: cell-based
Experimental: as §4, with “Figure 4 Mutations in the β5-α3 loop affect the antiviral potencies of the new compounds. The” for “The”
as §2, §3

HIV-1 IN mutant P142A = experiment: single-round infectivity assay, P142A IN mutant; type: cell-based
Experimental: as §4, with “Figure 4 Mutations in the β5-α3 loop affect the antiviral potencies of the new compounds. The” for “The”
as §2, §3

HIV-1 IN mutant P142H = experiment: single-round infectivity assay, P142H IN mutant; type: cell-based
Experimental: as §4
Single round infectivity measurements were determined as done previously.[38]
as §3

HIV-1 IN mutant P142S = experiment: single-round infectivity assay, P142S IN mutant; type: cell-based
Experimental: as §4, with “Figure 4 Mutations in the β5-α3 loop affect the antiviral potencies of the new compounds. The” for “The”
as §2, §3

HIV-1 IN mutant S230R = experiment: single-round infectivity assay, S230R IN mutant; type: cell-based
Experimental: as §4, with “Figure 5 Antiviral potencies of the new compounds against IN with mutations in the […]. The” for “The”
as §2, §3

HIV-1 IN mutant R231G = experiment: single-round infectivity assay, R231G IN mutant; type: cell-based
Experimental: as §4, with “Figure 5 Antiviral potencies of the new compounds against IN with mutations in the […]. The” for “The”
as §2, §3

HIV-1 IN mutant R231K = experiment: single-round infectivity assay, R231K IN mutant; type: cell-based
Experimental: as §4, with “Figure 5 Antiviral potencies of the new compounds against IN with mutations in the […]. The” for “The”
as §2, §3

WT HIV-1 = conditions: vector carrying WT HIV-1 IN, single round infection; previously reported; cited from earlier work
[3] = system: HIV-1 IN double mutant G140S/Q148H; conditions: single round infection; previously reported; cited from earlier work
HIV-1 IN mutant G118R [4] = conditions: single round infection; previously shown; cited from earlier work
[5] = fold change in EC50, IN mutant versus WT HIV-1

Nc1c(C(=O)NCc2ccc(F)cc2F)c(=O)n(O)c2ncc(CCS(=O)(=O)c3ccccc3)cc12 [4f]
ratio of the EC50s (our compound relative to DTG) against Y143R (HIV-1 IN mutant Y143R): 0.1
ratio of the EC50s (our compound relative to DTG) against N155H (HIV-1 IN mutant N155H): 0.6
ratio of the EC50s (our compound relative to DTG) against G140S/Q148H [1]: 0.9
EC50 (HIV-1 IN mutant N117A; Human immunodeficiency virus 1, read-out: EC50 values N117A): 0.8 nM
FC N117A (HIV-1 IN mutant N117A; [5]): 0.4
ratio of the EC50s (our compound relative to DTG) against N117H (HIV-1 IN mutant N117H; EC50 compound / EC50 DTG): 1.1
EC50 (HIV-1 IN mutant N117H; Human immunodeficiency virus 1, read-out: EC50 values N117H): 2.7 nM
FC N117H (HIV-1 IN mutant N117H; [5]): 1.4
ratio of the EC50s (our compound relative to DTG) against G118R (HIV-1 IN mutant G118R [2]; EC50 compound / EC50 DTG): 0.9
FC G118R (HIV-1 IN mutant G118R [2]; [5]): 5.7
ratio of the EC50s (our compound relative to DTG) against S119R (HIV-1 IN mutant S119R; EC50 compound / EC50 DTG): 1.1
EC50 (HIV-1 IN mutant S119R; Human immunodeficiency virus 1, read-out: EC50 values S119R): 2.6 ± 0.4 nM
FC S119R (HIV-1 IN mutant S119R; [5]): 1.3
ratio of the EC50s (our compound relative to DTG) against Y143C (HIV-1 IN mutant Y143C; EC50 compound / EC50 DTG): 1.2
EC50 (HIV-1 IN mutant Y143C; Human immunodeficiency virus 1, read-out: EC50 values Y143C, single round infection, n = 4): 1.7 ± 0.4 nM
FC Y143C (HIV-1 IN mutant Y143C; [5]): 0.9
EC50 (HIV-1 IN mutant Y143C; read-out: EC50 values Y143C, single round infection, n = 4): < 3 nM
ratio of the EC50s (our compound relative to DTG) against Y143H (HIV-1 IN mutant Y143H; EC50 compound / EC50 DTG): 1.0
EC50 (HIV-1 IN mutant Y143H; Human immunodeficiency virus 1, read-out: EC50 values Y143H, single round infection, n = 4): 2.3 ± 0.1 nM
FC Y143H (HIV-1 IN mutant Y143H; [5]): 1.2
EC50 (HIV-1 IN mutant Y143H; read-out: EC50 values Y143H, single round infection, n = 4): < 3 nM
ratio of the EC50s (our compound relative to DTG) against P142A (HIV-1 IN mutant P142A; EC50 compound / EC50 DTG): 1.1
EC50 (HIV-1 IN mutant P142A; Human immunodeficiency virus 1, read-out: EC50 values P142A): 2.8 ± 0.1 nM
FC P142A (HIV-1 IN mutant P142A; [5]): 1.4
ratio of the EC50s (our compound relative to DTG) against P142H (HIV-1 IN mutant P142H; EC50 compound / EC50 DTG): 0.6
EC50 (HIV-1 IN mutant P142H; Human immunodeficiency virus 1, read-out: EC50 values P142H): 1.7 ± 0.2 nM
FC P142H (HIV-1 IN mutant P142H; [5]): 0.9
ratio of the EC50s (our compound relative to DTG) against P142S (HIV-1 IN mutant P142S; EC50 compound / EC50 DTG): 0.7
EC50 (HIV-1 IN mutant P142S; Human immunodeficiency virus 1, read-out: EC50 values P142S): 1.5 ± 0.3 nM
FC P142S (HIV-1 IN mutant P142S; [5]): 0.8
ratio of the EC50s (our compound relative to DTG) against S230R (HIV-1 IN mutant S230R; EC50 compound / EC50 DTG): 1.0
EC50 (HIV-1 IN mutant S230R; Human immunodeficiency virus 1, read-out: EC50 values S230R): 4.8 ± 0.3 nM
FC S230R (HIV-1 IN mutant S230R; [5]): 2.4
ratio of the EC50s (our compound relative to DTG) against R231G (HIV-1 IN mutant R231G; EC50 compound / EC50 DTG): 1.4
EC50 (HIV-1 IN mutant R231G; Human immunodeficiency virus 1, read-out: EC50 values R231G): 2 ± 0.2 nM
FC R231G (HIV-1 IN mutant R231G; [5]): 1.0
ratio of the EC50s (our compound relative to DTG) against R231K (HIV-1 IN mutant R231K; EC50 compound / EC50 DTG): 0.8
EC50 (HIV-1 IN mutant R231K; Human immunodeficiency virus 1, read-out: EC50 values R231K, single round infection, n = 4): 3.3 ± 0.2 nM
EC50 (HIV-1 IN mutant R231K; read-out: EC50 values R231K, single round infection, n = 4): < 5 nM
EC50 (WT HIV-1): 2 ± 0.1 nM
EC50 [3]: 5.2 ± 0.3 nM
EC50 (HIV-1 IN mutant G118R [4]): 11.4 ± 3.5 nM
